The numbers were not newly measured in patent US20190352602A1, “Methods and Compositions for Producing Germ Cells from Bone Marrow Derived Germline Stem Cells” (The General Hospital Corporation, priority 2004, published 2019), which cites them from elsewhere.

The test system of this data set is irradiated testicular tissue. Particulars: irradiated testicular tissue treated with S1P vs untreated tissues.

Consider `CCCCCCCCCCCCC/C=C/[C@@H](O)[C@@H](N)COP(=O)(O)O` [S1P, Sphingosine-1-phosphate], for which the “numbers of primary spermatocytes and spermatogonia” value is “higher than untreated tissues”.
